One assay relates to RBL-2H3 cells. Briefly: IgE-induced Beta-hexosaminidase secretion in RBL-2H3 cells. Format: cell-based. To be noted: Rattus norvegicus.
In the next assay the target is Syk kinase (Homo sapiens, UniProt P43405). Briefly: Syk kinase enzymatic assay (Kit-Tyr 2 Peptide). Format: biochemical.
[1] abbreviates: RBL-2H3, RBL-2H3 cells sensitized with SPE-7, stimulated with DNP-BSA, upper bound of each range is 'less than', read-out: IC50, IgE-induced Beta-hexosaminidase secretion.
The mark [2] stands for this setting: 8 concentrations, 1 μM down to 0.0003 μM, upper bound of each range is 'less than', read-out: IC50: Enzymatic Activity (Syk kinase).

Read-outs that look alike come from different tables or passages of the source.

Take `CN(C)c1ccc(-c2cc3nccnc3c(NCCS(N)(=O)=O)n2)cc1` [Compound 166]: the IC50 in the assay on RBL-2H3 cells (setting [1]) and at Syk kinase (setting [2]) was 100 to 1000 nM throughout.
As for `O=C(CO)N1CCC(c2ccc(-c3cc4nccnc4c(NC[C@@H]4CNCCO4)n3)cc2)CC1` [Compound 511], the IC50 in the assay on RBL-2H3 cells (setting [1]) and on Syk kinase (setting [2]) was 1 to 100 nM throughout.
Take `Cn1ccc2cc(-c3cc4nccnc4c(NC[C@@H]4CNCCO4)n3)ccc21` [Compound 235]: the IC50 in the assay with RBL-2H3 cells (setting [1]) and on Syk kinase (setting [2]) was 1 to 100 nM throughout.
Consider `O=C([C@@H]1CCCO1)N1CCN(c2ccc(-c3cc4nccnc4c(NC[C@@H]4CNCCO4)n3)cc2)CC1` [Compound 415], for which the IC50 in the assay on RBL-2H3 cells (setting [1]) and on Syk kinase (setting [2]) was 1 to 100 nM in each case.
On to `CCN1CCN(c2ccc(-c3cc4nccnc4c(NC[C@H]4CCCNC4)n3)cc2F)CC1` [Compound 238], for which the IC50 – broadly, the concentration that gives 50% inhibition – in the assay with RBL-2H3 cells (setting [1]) is 100 to 1000 nM; on Syk kinase (setting [2]), 1 to 100 nM.
For `FC1(F)CCNC[C@H]1CNc1nc(-c2ccc(N3CCOCC3)nc2)cc2nccnc12` [Compound 374, (S)—N-((4,4-difluoropiperidin-3-yl)methyl)-7-(6-morpholinopyridin-3-yl)pyrido[4,3-b]pyrazin-5-amine], in that order: 1 to 100 nM and 1 to 100 nM.
Turning to `CC(=O)N1CCC(c2ccc(-c3cc4nccnc4c(NC[C@@H]4CN(C(=O)C(F)F)CCO4)n3)cc2)CC1` [Compound 470], the IC50 with RBL-2H3 cells (setting [1]) and at Syk kinase (setting [2]) was 1 to 100 nM throughout.
With `CN(C)c1ccc(-c2cc3nccnc3c(NC[C@@H]3CNCCO3)n2)cn1` [Compound 102], the IC50 in the assay on RBL-2H3 cells (setting [1]) and on Syk kinase (setting [2]) was 1 to 100 nM throughout.
In the case of `c1cnc2c(NC[C@H]3CNCCO3)nc(-c3ccc(N4CCOCC4)nc3)cc2n1` [Compound 97], the IC50 with RBL-2H3 cells (setting [1]) and at Syk kinase (setting [2]) was 100 to 1000 nM in each case.
Take `N#CCC(=O)N1CCO[C@H](CNc2nc(-c3ccc(N4CCOCC4)cc3)cc3nccnc23)C1` [Compound 324]: the IC50 in the assay with RBL-2H3 cells (setting [1]) and on Syk kinase (setting [2]) was 1 to 100 nM throughout.
`CS(=O)(=O)N1CCO[C@H](CNc2nc(-c3ccc(C4CCN(CCCO)CC4)cc3)cc3nccnc23)C1` [Compound 494]: the IC50 lay within 100 to 1000 nM with RBL-2H3 cells (setting [1]) and 1 to 100 nM at Syk kinase (setting [2]).
Consider `c1cnc2c(N3CCC4(CCCNC4)C3)nc(-c3ccc(N4CCCC4)cc3)cc2n1` (stereo not shown) [Compound 112], for which the results for the IC50 with RBL-2H3 cells (setting [1]) and at Syk kinase (setting [2]) were 100 to 1000 nM and 1 to 100 nM, respectively.
Taken in the same sequence, the figures for `CC1(C(=O)N2CCN(c3ccc(-c4cc5nccnc5c(NC[C@@H]5CNCCO5)n4)cc3)CC2)CC1` [Compound 402] were 1 to 100 nM and 1 to 100 nM.
`Cc1cc(-c2cc3nccnc3c(NC[C@@H]3CN(C(=O)C(F)F)CCO3)n2)ccc1N1CCOCC1` [Compound 450]: the IC50 in the assay with RBL-2H3 cells (setting [1]) and on Syk kinase (setting [2]) was 1 to 100 nM each time.
For `CC(C)COc1ccc(-c2cc3nccnc3c(NCC3CCCNC3)n2)cc1` (stereo not shown) [Compound 42], the figures for the IC50 in the assay with RBL-2H3 cells (setting [1]) and at Syk kinase (setting [2]) were 100 to 1000 nM and 1 to 100 nM, respectively.
For `F[C@H]1CCN(c2ccc(-c3cc4nccnc4c(NCC4CNCCO4)n3)cc2)C1` (stereo partly shown) [Compound 231], in that order: 1 to 100 nM and 1 to 100 nM.
Consider `NC(=O)NC[C@@H]1CCN(c2nc(-c3ccc(N4CCOCC4)cc3)cc3nccnc23)C1` [Compound 150, (S)-1-((1-(7-(4-morpholinophenyl)pyrido[4,3-b]pyrazin-5-yl)pyrrolidin-3-yl)methyl)urea], for which the IC50 with RBL-2H3 cells (setting [1]) and at Syk kinase (setting [2]) was 100 to 1000 nM each time.
On to `CN(c1ccc(-c2cc3nccnc3c(NC[C@@H]3CNCCO3)n2)cn1)C1CCOCC1` [Compound 264], for which the IC50 with RBL-2H3 cells (setting [1]) and at Syk kinase (setting [2]) was 1 to 100 nM throughout.
On to `CS(=O)(=O)N1CCC(c2ccc(-c3cc4nccnc4c(NC[C@@H]4CN(C(=O)C(F)F)CCO4)n3)cc2)CC1` [Compound 465], for which the IC50 in the assay with RBL-2H3 cells (setting [1]) and on Syk kinase (setting [2]) was 1 to 100 nM each time.
With `Cc1cc(-c2cc3nccnc3c(NC[C@H]3CNCCO3)n2)ccc1N1CCOCC1` [Compound 115], the IC50 in the assay with RBL-2H3 cells (setting [1]) lay within 1 to 100 nM; at Syk kinase (setting [2]), 100 to 1000 nM.
For `FC1(CNc2nc(-c3ccc(N4CCOCC4)cc3)cc3nccnc23)CCCNC1` (stereo not shown) [Compound 251], in that order: 1 to 100 nM and 1 to 100 nM.
Taken in the same sequence, the figures for `CS(=O)(=O)N1CCN(c2ccc(-c3cc4nccnc4c(N4CC[C@H](CO)C4)n3)cc2)CC1` [Compound 362] were 1 to 100 nM and 1 to 100 nM.
For the compound `COc1ccc(-c2cc3nccnc3c(NCC3CNCCC3(F)F)n2)cc1F` (stereo not shown) [Compound 296], the IC50 in the assay with RBL-2H3 cells (setting [1]) and at Syk kinase (setting [2]) was 1 to 100 nM throughout.
As to `CS(=O)(=O)N1CCN(c2ccc(-c3cc4nccnc4c(NCC4CNCCC4(F)F)n3)cc2)CC1` (stereo not shown) [Compound 444], the IC50 in the assay on RBL-2H3 cells (setting [1]) and on Syk kinase (setting [2]) was 1 to 100 nM each time.
For the compound `CS(=O)(=O)N1CCN(c2ccc(-c3cc4nccnc4c(NCC4CNCCC4(F)F)n3)cn2)CC1` (stereo not shown) [Compound 442], the IC50 with RBL-2H3 cells (setting [1]) and on Syk kinase (setting [2]) was 1 to 100 nM throughout.
With `F[C@@]1(CNc2nc(-c3ccc(N4CCOCC4)cc3)cc3nccnc23)CCCNC1` [Compound 376, (S)—N-((3-fluoropiperidin-3-yl)methyl)-7-(4-morpholinophenyl)pyrido[4,3-b]pyrazin-5-amine], the IC50 in the assay on RBL-2H3 cells (setting [1]) and on Syk kinase (setting [2]) was 1 to 100 nM each time.
`FC1(F)CCNCC1CNc1nc(-c2ccc(N3CCOCC3)nc2)cc2nccnc12` (stereo not shown) [Compound 292]: the IC50 in the assay with RBL-2H3 cells (setting [1]) and on Syk kinase (setting [2]) was 1 to 100 nM in each case.
In the case of `CC(Nc1nc(-c2ccc(N3CCOCC3)c(F)c2)cc2nccnc12)C1CNCCO1` (stereo not shown) [Compound 278], the IC50 in the assay with RBL-2H3 cells (setting [1]) and on Syk kinase (setting [2]) was 1 to 100 nM throughout.
Regarding `O=C(C(F)F)N1CCN(c2ccc(-c3cc4nccnc4c(NC[C@@H]4CNCCO4)n3)cc2F)CC1` [Compound 427], the IC50 with RBL-2H3 cells (setting [1]) and on Syk kinase (setting [2]) was 1 to 100 nM throughout.
On to `FC1(CNc2nc(-c3cnn(C4CCOCC4)c3)cc3nccnc23)CCCNC1` (stereo not shown) [Compound 290], for which the IC50 with RBL-2H3 cells (setting [1]) and at Syk kinase (setting [2]) was 1 to 100 nM throughout.
For `CN1CCN(c2ccc(-c3cc4nccnc4c(N4CCC(C(N)=O)C4)n3)cc2)CC1` (stereo not shown) [Compound 128], the IC50 was 100 to 1000 nM in the assay with RBL-2H3 cells (setting [1]) and 1 to 100 nM on Syk kinase (setting [2]).
Taken in the same sequence, the figures for `CN1CCN(c2ccc(-c3cc4nccnc4c(NC[C@@H]4CNCCO4)n3)cc2)CC1` [Compound 123] were 1 to 100 nM and 1 to 100 nM.
`O=C(C(F)F)N1CCO[C@H](CNc2nc(-c3ccc(N4CCN(CCO)CC4)cc3)cc3nccnc23)C1` [Compound 489]: the IC50 with RBL-2H3 cells (setting [1]) and at Syk kinase (setting [2]) was 1 to 100 nM each time.
Take `O=C(CF)N1CCN(c2ccc(-c3cc4nccnc4c(NCC4CNCCO4)n3)cc2)CC1` (stereo not shown) [Compound 424]: the IC50 in the assay on RBL-2H3 cells (RBL-2H3, read-out: IC50, IgE-induced Beta-hexosaminidase secretion) fell in the range of 1 to 100 nM; at Syk kinase it was 1 to 100 nM.
With `O=S(=O)(C1CC1)N1CCN(c2ccc(-c3cc4nccnc4c(NC[C@@H]4CNCCO4)n3)cc2)CC1` [Compound 400, (S)-7-(4-(4-(cyclopropylsulfonyl)piperazin-1-yl)phenyl)-N-(morpholin-2-ylmethyl)pyrido[4,3-b]pyrazin-5-amine], the IC50 with RBL-2H3 cells (setting [1]) and at Syk kinase (setting [2]) was 1 to 100 nM each time.
Turning to `Fc1cc(-c2cc3nccnc3c(NCC3(F)CCCNC3)n2)ccc1N1CCOCC1` (single isomer, unassigned) [Compound 382], the IC50 in the assay with RBL-2H3 cells (setting [1]) and on Syk kinase (setting [2]) was 1 to 100 nM each time.
As for `Fc1cc(-c2cc3nccnc3c(NCC3CNCCCO3)n2)ccc1N1CCOCC1` (stereo not shown) [Compound 222], the IC50 with RBL-2H3 cells (setting [1]) and at Syk kinase (setting [2]) was 100 to 1000 nM each time.
Regarding `Oc1ccc(-c2cc3nccnc3c(NC[C@H]3CCCNC3)n2)cc1F` [Compound 67], the IC50 fell in the range of 100 to 1000 nM with RBL-2H3 cells (setting [1]) and 1 to 100 nM at Syk kinase (setting [2]).
As to `CC(C)(O)C1CCN(c2ccc(-c3cc4nccnc4c(NC[C@@H]4CNCCO4)n3)cc2)CC1` [Compound 275], the IC50 in the assay on RBL-2H3 cells (setting [1]) and on Syk kinase (setting [2]) was 1 to 100 nM throughout.
Turning to `Nc1ccc(-c2cc3nccnc3c(NC[C@@H]3CCCNC3)n2)cc1Cl` [Compound 75], the 50% inhibitory concentration (IC50) with RBL-2H3 cells (setting [1]) and on Syk kinase (setting [2]) was 100 to 1000 nM throughout.
On to `CC(=O)N1CCC(n2cc(-c3cc4nccnc4c(NCC4CNCCC4(F)F)n3)cn2)CC1` (stereo not shown) [Compound 320], for which the IC50 in the assay on RBL-2H3 cells (setting [1]) and on Syk kinase (setting [2]) was 1 to 100 nM each time.
In the case of `CCS(=O)(=O)N1CCN(c2ccc(-c3cc4nccnc4c(NC[C@@H]4CNCCO4)n3)cc2)CC1` [Compound 435], the IC50 with RBL-2H3 cells (setting [1]) and at Syk kinase (setting [2]) was 1 to 100 nM in each case.
`CN(C)c1ccc(-c2cc3nccnc3c(NC[C@H]3CCCNC3)n2)cc1` [Compound 21]: the IC50 in the assay with RBL-2H3 cells (setting [1]) and at Syk kinase (setting [2]) was 1 to 100 nM in each case.
As for `FC1(CNc2nc(-c3cnn(C4CCCC4)c3)cc3nccnc23)CCCNC1` (stereo not shown) [Compound 289], the IC50 with RBL-2H3 cells (setting [1]) and at Syk kinase (setting [2]) was 1 to 100 nM each time.
Take `c1cnc2c(NCc3cc[nH]n3)nc(-c3ccc(N4CCOCC4)cc3)cc2n1` [Compound 162]: the IC50 in the assay with RBL-2H3 cells (setting [1]) and on Syk kinase (setting [2]) was 100 to 1000 nM throughout.
As to `O=C(C1CC1(F)F)N1CCN(c2ccc(-c3cc4nccnc4c(NC[C@@H]4CNCCO4)n3)cc2)CC1` (stereo partly shown) [Compound 439], the IC50 with RBL-2H3 cells (setting [1]) and at Syk kinase (setting [2]) was 1 to 100 nM in each case.
Take `O=C(C1CC1)N1CCN(c2ccc(-c3cc4nccnc4c(NC[C@@H]4CNCCO4)n3)cc2)CC1` [Compound 266]: the IC50 in the assay with RBL-2H3 cells (setting [1]) and on Syk kinase (setting [2]) was 1 to 100 nM each time.
As to `CS(=O)(=O)N1CCCN(c2ccc(-c3cc4nccnc4c(NC[C@@H]4CNCCO4)n3)cc2)CC1` [Compound 502], the IC50 with RBL-2H3 cells (setting [1]) lay within 100 to 1000 nM; on Syk kinase (setting [2]) it was 1 to 100 nM.
For `CNC(=O)COc1ccc(-c2cc3nccnc3c(NC[C@H]3CNCCC3(F)F)n2)cc1` [Compound 389, (R)-2-(4-(5-((4,4-difluoropiperidin-3-yl)methylamino)pyrido[4,3-b]pyrazin-7-yl)phenoxy)-N-methylacetamide], in that order: 1 to 100 nM and 1 to 100 nM.
For `COc1ccc(-c2cc3nccnc3c(NCC3CCCNC3)n2)cc1F` (stereo not shown) [Compound 19], in that order: 1 to 100 nM and 1 to 100 nM.

The values above are taken from patent US10052330B2, “Substituted pyrido[3,4-b]pyrazines as Syk inhibitors” (HUTCHISON MEDIPHARMA LIMITED, priority 2011, dated 2018).
